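Tested at 5 concentrations; 48 h exposure; 96-well plates; endpoints linearly interpolated, else capped at highest concentration. Abbreviation: GI50, concentration required for 50% inhibition of growth.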 The source made the active and inactive calls. No stated cut-off is given here; in the data, active = GI50 up to about 1.1 µM and inactive = higher.
Key:
Assay in all cases: NCI tumour cell line growth inhibition, 48 h
SK-MEL-28 = test system: SK-MEL-28
ACHN = test system: ACHN
A549 = test system: A549
SNB-75 = test system: SNB-75
IGROV-1 = test system: IGROV-1
Malme-3M = test system: Malme-3M
MOLT-4 = test system: MOLT-4
OVCAR-8 = test system: OVCAR-8
UACC-62 = test system: UACC-62
NCI-H522 = test system: NCI-H522
EKVX = test system: EKVX
DLD-1 = test system: DLD-1
UACC-257 = test system: UACC-257
LOX IMVI = test system: LOX IMVI
NCI-H23 = test system: NCI-H23
HOP-62 = test system: HOP-62
MCF7 = test system: MCF7
NCI/ADR-RES = test system: NCI/ADR-RES
BT-549 = test system: BT-549
T47D = test system: T47D

SMILES	GI50 (SK-MEL-28)	GI50 (ACHN)	GI50 (A549)	GI50 (SNB-75)	GI50 (IGROV-1)	GI50 (Malme-3M)	GI50 (MOLT-4)	GI50 (OVCAR-8)	GI50 (UACC-62)	GI50 (NCI-H522)	GI50 (EKVX)	GI50 (DLD-1)	GI50 (UACC-257)	GI50 (LOX IMVI)	GI50 (NCI-H23)	GI50 (HOP-62)	GI50 (MCF7)	GI50 (NCI/ADR-RES)	GI50 (BT-549)	GI50 (T47D)
CC1=NN(c2ccccc2)C(=O)/C1=C\c1ccc([N+](=O)[O-])cc1	36.6 µM (inactive)	31.5 µM (inactive)	35.4 µM (inactive)	25.5 µM (inactive)	29.6 µM (inactive)	23.9 µM (inactive)	21.5 µM (inactive)	31.2 µM (inactive)	21.7 µM (inactive)	21.8 µM (inactive)	36.6 µM (inactive)	36 µM (inactive)	28.7 µM (inactive)	21.1 µM (inactive)	27.9 µM (inactive)	–	–	–	–	–
O=C1c2ccccc2C(=O)C12CCc1ccccc12	> 100 µM (inactive)	> 100 µM (inactive)	> 100 µM (inactive)	40.3 µM (inactive)	> 100 µM (inactive)	> 100 µM (inactive)	4.18 µM (inactive)	> 100 µM (inactive)	> 100 µM (inactive)	–	> 100 µM (inactive)	> 100 µM (inactive)	–	> 100 µM (inactive)	> 100 µM (inactive)	> 100 µM (inactive)	–	–	–	–
C/C(CCc1ccccc1)=N\NC(N)=S	> 100 µM (inactive)	> 100 µM (inactive)	> 100 µM (inactive)	76.4 µM (inactive)	> 100 µM (inactive)	> 100 µM (inactive)	72.8 µM (inactive)	> 100 µM (inactive)	> 100 µM (inactive)	–	72.4 µM (inactive)	> 100 µM (inactive)	> 100 µM (inactive)	> 100 µM (inactive)	> 100 µM (inactive)	> 100 µM (inactive)	–	–	–	–
C=C1CCOC2(C(O)C(C)(O)CO)NC(=O)C1(O)NC2=O (centres undefined)	> 100 µM (inactive)	> 100 µM (inactive)	> 100 µM (inactive)	> 100 µM (inactive)	> 100 µM (inactive)	> 100 µM (inactive)	> 100 µM (inactive)	> 100 µM (inactive)	> 100 µM (inactive)	> 100 µM (inactive)	> 100 µM (inactive)	–	> 100 µM (inactive)	> 100 µM (inactive)	> 100 µM (inactive)	> 100 µM (inactive)	> 100 µM (inactive)	> 100 µM (inactive)	> 100 µM (inactive)	> 100 µM (inactive)
CCOc1cc(NC(C)=O)ccc1C(=O)NN1C(=O)CSC1c1ccccc1 (centres undefined)	> 100 µM (inactive)	> 100 µM (inactive)	77.3 µM (inactive)	95.3 µM (inactive)	> 100 µM (inactive)	86.3 µM (inactive)	< 0.01 µM (active)	48 µM (inactive)	52 µM (inactive)	43.2 µM (inactive)	91 µM (inactive)	–	63.8 µM (inactive)	> 100 µM (inactive)	66.7 µM (inactive)	> 100 µM (inactive)	78.5 µM (inactive)	35.7 µM (inactive)	34.9 µM (inactive)	25.7 µM (inactive)
CCOC(=O)NC(=O)c1cn(-c2ccc(CCOC(=O)CCCCCCCCC(=O)OCCc3ccc(-n4cc(C(=O)NC(=O)OCC)c(=O)[nH]c4=O)cc3)cc2)c(=O)[nH]c1=O	> 100 µM (inactive)	> 100 µM (inactive)	> 100 µM (inactive)	–	76.4 µM (inactive)	> 100 µM (inactive)	> 100 µM (inactive)	> 100 µM (inactive)	> 100 µM (inactive)	–	> 100 µM (inactive)	> 100 µM (inactive)	> 100 µM (inactive)	> 100 µM (inactive)	> 100 µM (inactive)	> 100 µM (inactive)	–	–	–	–
O=c1ncccn1C1C=C(CO)C(O)C1O (centres undefined)	> 50 µM (inactive)	> 50 µM (inactive)	> 50 µM (inactive)	–	–	> 50 µM (inactive)	> 50 µM (inactive)	–	–	> 50 µM (inactive)	> 50 µM (inactive)	> 50 µM (inactive)	> 50 µM (inactive)	> 50 µM (inactive)	> 50 µM (inactive)	> 50 µM (inactive)	–	–	–	–
N#C/C(=C\c1ccccc1)C(NO)Nc1ccccc1 (centres undefined)	> 100 µM (inactive)	72.9 µM (inactive)	> 100 µM (inactive)	50.6 µM (inactive)	57.3 µM (inactive)	> 100 µM (inactive)	31.9 µM (inactive)	66.1 µM (inactive)	42.1 µM (inactive)	35.3 µM (inactive)	> 100 µM (inactive)	> 100 µM (inactive)	> 100 µM (inactive)	–	> 100 µM (inactive)	> 100 µM (inactive)	–	–	–	–
O=C(c1nc2ccccc2nc1O)C(O)c1ccccc1 (centres undefined)	29.8 µM (inactive)	44.6 µM (inactive)	70.3 µM (inactive)	–	> 100 µM (inactive)	> 100 µM (inactive)	64.9 µM (inactive)	> 100 µM (inactive)	72.4 µM (inactive)	22.2 µM (inactive)	64.6 µM (inactive)	> 100 µM (inactive)	> 100 µM (inactive)	39.5 µM (inactive)	> 100 µM (inactive)	> 100 µM (inactive)	–	–	–	–
COc1c(CC(C)=O)c2ccccc2n1C(C)=O	> 100 µM (inactive)	> 100 µM (inactive)	> 100 µM (inactive)	> 100 µM (inactive)	> 100 µM (inactive)	–	> 100 µM (inactive)	> 100 µM (inactive)	> 100 µM (inactive)	–	> 100 µM (inactive)	> 100 µM (inactive)	> 100 µM (inactive)	–	> 100 µM (inactive)	> 100 µM (inactive)	–	–	–	–
CCOP12(OCC)NC(=O)OC1(C(F)(F)F)c1ccccc1O2 (centres undefined)	> 100 µM (inactive)	> 100 µM (inactive)	> 100 µM (inactive)	82.8 µM (inactive)	> 100 µM (inactive)	> 100 µM (inactive)	> 100 µM (inactive)	> 100 µM (inactive)	> 100 µM (inactive)	> 100 µM (inactive)	–	> 100 µM (inactive)	> 100 µM (inactive)	> 100 µM (inactive)	> 100 µM (inactive)	–	–	–	–	–
C#CCSc1nc(N)c2ncn(C3OC(CO)C(O)C3O)c2n1 (centres undefined)	> 100 µM (inactive)	> 100 µM (inactive)	> 100 µM (inactive)	–	> 100 µM (inactive)	> 100 µM (inactive)	> 100 µM (inactive)	> 100 µM (inactive)	–	> 100 µM (inactive)	> 100 µM (inactive)	> 100 µM (inactive)	> 100 µM (inactive)	> 100 µM (inactive)	> 100 µM (inactive)	> 100 µM (inactive)	–	–	–	–
Fc1ccc(/N=C/C=C/Nc2ccc(F)cc2)cc1	7.5 µM (inactive)	0.11 µM (active)	8.67 µM (inactive)	15 µM (inactive)	12.8 µM (inactive)	16.4 µM (inactive)	12.9 µM (inactive)	12.9 µM (inactive)	0.509 µM (active)	13.5 µM (inactive)	12.9 µM (inactive)	–	13.5 µM (inactive)	0.817 µM (active)	15 µM (inactive)	17.7 µM (inactive)	11.7 µM (inactive)	11.9 µM (inactive)	14.1 µM (inactive)	6.37 µM (inactive)
C[N+](C)(C)/C=N\c1cccc2nsnc12	> 100 µM (inactive)	> 100 µM (inactive)	> 100 µM (inactive)	> 100 µM (inactive)	> 100 µM (inactive)	> 100 µM (inactive)	> 100 µM (inactive)	> 100 µM (inactive)	> 100 µM (inactive)	> 100 µM (inactive)	> 100 µM (inactive)	–	> 100 µM (inactive)	> 100 µM (inactive)	> 100 µM (inactive)	> 100 µM (inactive)	> 100 µM (inactive)	> 100 µM (inactive)	> 100 µM (inactive)	> 100 µM (inactive)
CC1C[C@H](OC(N)=O)C(C)CC1=O (some centres undefined)	–	> 100 µM (inactive)	> 100 µM (inactive)	> 100 µM (inactive)	> 100 µM (inactive)	> 100 µM (inactive)	> 100 µM (inactive)	> 100 µM (inactive)	> 100 µM (inactive)	–	> 100 µM (inactive)	> 100 µM (inactive)	> 100 µM (inactive)	> 100 µM (inactive)	> 100 µM (inactive)	> 100 µM (inactive)	–	–	–	–
CN(C)c1ccc(/C=N/NC(=S)Nc2ccccc2)cc1	> 100 µM (inactive)	> 100 µM (inactive)	> 100 µM (inactive)	> 100 µM (inactive)	> 100 µM (inactive)	> 100 µM (inactive)	> 100 µM (inactive)	> 100 µM (inactive)	> 100 µM (inactive)	> 100 µM (inactive)	> 100 µM (inactive)	–	> 100 µM (inactive)	> 100 µM (inactive)	> 100 µM (inactive)	96.4 µM (inactive)	> 100 µM (inactive)	> 100 µM (inactive)	> 100 µM (inactive)	> 100 µM (inactive)
O=C1C(O)=C(CCCCCCCCC2CCCCC2)C(=O)c2ccccc21 [MENOCTONE]	11.4 µM (inactive)	2.93 µM (inactive)	5.58 µM (inactive)	10.6 µM (inactive)	5.3 µM (inactive)	1.3 µM (inactive)	2.58 µM (inactive)	8.67 µM (inactive)	6.05 µM (inactive)	6.24 µM (inactive)	4.55 µM (inactive)	–	6.28 µM (inactive)	3.6 µM (inactive)	3.33 µM (inactive)	11.6 µM (inactive)	6.41 µM (inactive)	6.34 µM (inactive)	11.7 µM (inactive)	5.5 µM (inactive)
